Laboratory results: article PMC2248166, “Quantitative peptide binding motifs for 19 human and mouse MHC class I molecules derived using positional scanning combinatorial peptide libraries” (Immunome Research, 2008)

How the values were obtained:
Assay type in all cases: binding
HLA A*3001 = HLA A*3001 (Homo sapiens, UniProt P04439, D140H/D185E/E176W/F33S/G80R/H175R/K168Q/R138E/R41S); experiment: biochemical
HLA A*3201 = HLA A*3201 (Homo sapiens, UniProt P04439, A270S/D101S/D185E/E176V/E277Q/F133L/G103R/G107R/G231S/H175R/I121M/I218V/I322F/K168Q/L105A/L300P/L318F/M331R/P208A/P217A/Q94H/R106L/R138Q/S129P/T104I/T323A/T345S/V100E/V321M/V358M); experiment: biochemical
HLA A*6802 = HLA A*6802 (Homo sapiens, UniProt P04439, A269V/D140Y/D185E/E176V/E277Q/E87N/F33Y/G231S/I121R/I166T/I218V/L180W/L300P/L318F/N151K/P208A/P217A/Q86R/R138H/R169H/S129P/T345S/V36M)
HLA B*0801 = HLA B*0801 (Homo sapiens, UniProt P01889, A93T/A95T/D138N/E176V/E187T/K202T/Q94N/R180D/S35A/V36M/Y33D/Y91F); experiment: biochemical
HLA B*1501 = HLA B*1501 (Homo sapiens, UniProt P01889, A329T/A93T/A95T/C349S/D201E/D98Y/E187L/E204Q/E69M/E70A/K202T/N87E/Q94N/R155S/R180W/S121R/S35A/S48A/V306I/V36M/Y140S/Y91S); experiment: biochemical
HLA B*1503 = HLA B*1503 (Homo sapiens, UniProt P01889, A329T/A93T/A95T/C349S/D201E/D98Y/E187L/E204Q/K202T/N87E/Q94N/R155S/R180L/S121R/S35A/V306I/V36M/Y140S/Y91S); experiment: biochemical
HLA B*3501 = HLA B*3501 (Homo sapiens, UniProt P01889, A329T/A93T/A95T/C349S/D201E/D98Y/E176V/E187L/E204Q/E69T/I218V/K202T/L119I/Q94N/R155S/R180L/S121R/S35A/S48A/T118I/V127L/V306I/V36M/Y140S/Y91F)
HLA B*5101 = HLA B*5101 (Homo sapiens, UniProt P01889, A329T/A93T/A95T/C349S/D138N/D201E/D98Y/E187L/E204Q/E69T/G107R/I218V/K202T/L105A/L119W/N104I/Q94N/R106L/R155S/R180L/S101N/S121T/S35A/S48A/V306I/V36M/Y195H/Y91F)
HLA B*5301 = HLA B*5301 (Homo sapiens, UniProt P01889, A329T/A93T/A95T/C349S/D201E/D98Y/E176V/E187L/E204Q/E69T/G107R/I218V/K202T/L105A/L119I/N104I/Q94N/R106L/R155S/R180L/S101N/S121R/S35A/S48A/T118I/V127L/V306I/V36M/Y140S/Y91F)
HLA B*5401 = HLA B*5401 (Homo sapiens, UniProt P01889, A329T/C349S/D138N/D201E/E176V/E187T/E204Q/E69G/I76V/K202T/L119W/R155S/R180L/S121T/S35A/S48A/V127L/V306I/V36M/Y140L)
HLA B*5801 = HLA B*5801 (Homo sapiens, UniProt P01889, A329T/C349S/D201E/D98Y/E176V/E187L/E204Q/E69T/G107R/I218V/I90N/K202T/L105A/L119I/N104I/N87E/Q89R/Q94S/R106L/R155S/R180L/R86G/S101N/S121R/S35A/S48A/T118I/V127L/V306I/V36M/Y140S/Y91M)
HLA B*5802 = HLA B*5802 (Homo sapiens, UniProt P01889, A329T/C349S/D201E/D98Y/E176V/E187L/E204Q/E69T/G107R/I218V/I90N/K202T/L105A/N104I/N87E/Q89R/Q94S/R106L/R155S/R180L/R86G/S101N/S121W/S35A/S48A/V127L/V306I/V36M/Y140S/Y91M)
H-2 D^b = H-2 D^b (Mus musculus, UniProt P01899)
Chain of H-2 D^b (P01887 21-119): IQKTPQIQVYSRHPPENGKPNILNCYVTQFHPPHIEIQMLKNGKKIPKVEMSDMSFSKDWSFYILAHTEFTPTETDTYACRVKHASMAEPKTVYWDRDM
Chain of H-2 D^b (P01899 25-362): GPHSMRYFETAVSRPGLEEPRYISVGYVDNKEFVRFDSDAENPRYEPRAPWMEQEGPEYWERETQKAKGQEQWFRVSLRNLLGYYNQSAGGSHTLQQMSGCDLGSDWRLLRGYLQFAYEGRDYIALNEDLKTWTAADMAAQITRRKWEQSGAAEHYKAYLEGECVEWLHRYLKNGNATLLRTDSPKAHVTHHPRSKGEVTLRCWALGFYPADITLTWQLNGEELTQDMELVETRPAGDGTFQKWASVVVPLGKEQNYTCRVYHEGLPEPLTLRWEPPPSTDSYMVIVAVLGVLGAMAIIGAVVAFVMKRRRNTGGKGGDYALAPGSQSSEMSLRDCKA

H-2 D^d = H-2 D^d (Mus musculus, UniProt P01900)
Chain of H-2 D^d (P01900 whole entry, looked up): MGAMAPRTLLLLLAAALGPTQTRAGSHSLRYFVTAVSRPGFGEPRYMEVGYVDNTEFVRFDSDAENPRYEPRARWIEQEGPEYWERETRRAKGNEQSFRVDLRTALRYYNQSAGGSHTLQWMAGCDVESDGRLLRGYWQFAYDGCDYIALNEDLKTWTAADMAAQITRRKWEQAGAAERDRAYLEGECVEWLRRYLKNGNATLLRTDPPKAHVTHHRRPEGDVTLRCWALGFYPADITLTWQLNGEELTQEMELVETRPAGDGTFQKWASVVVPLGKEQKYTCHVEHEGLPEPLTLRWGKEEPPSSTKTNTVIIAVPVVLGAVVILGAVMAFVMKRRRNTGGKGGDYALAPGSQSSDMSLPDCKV

H-2 K^d = H-2 K^d (Mus musculus, UniProt P01902)
Chain of H-2 K^d (P01887 21-119): as the sequence (P01887 21-119) above
Chain of H-2 K^d (P01902 22-368): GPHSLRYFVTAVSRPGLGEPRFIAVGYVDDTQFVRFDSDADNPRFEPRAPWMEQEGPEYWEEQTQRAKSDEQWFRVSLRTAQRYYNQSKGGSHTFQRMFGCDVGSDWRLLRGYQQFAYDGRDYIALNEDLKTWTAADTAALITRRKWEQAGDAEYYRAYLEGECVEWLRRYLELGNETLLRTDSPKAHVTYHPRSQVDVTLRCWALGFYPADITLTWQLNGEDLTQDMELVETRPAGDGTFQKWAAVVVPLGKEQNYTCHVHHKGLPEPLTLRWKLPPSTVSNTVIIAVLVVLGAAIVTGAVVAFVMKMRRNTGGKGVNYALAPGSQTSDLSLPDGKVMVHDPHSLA

H-2 K^k = H-2 K^k (Mus musculus, UniProt P04223)
Chain of H-2 K^k (P01887 21-119): as the sequence (P01887 21-119) above
Chain of H-2 K^k (P04223 22-369): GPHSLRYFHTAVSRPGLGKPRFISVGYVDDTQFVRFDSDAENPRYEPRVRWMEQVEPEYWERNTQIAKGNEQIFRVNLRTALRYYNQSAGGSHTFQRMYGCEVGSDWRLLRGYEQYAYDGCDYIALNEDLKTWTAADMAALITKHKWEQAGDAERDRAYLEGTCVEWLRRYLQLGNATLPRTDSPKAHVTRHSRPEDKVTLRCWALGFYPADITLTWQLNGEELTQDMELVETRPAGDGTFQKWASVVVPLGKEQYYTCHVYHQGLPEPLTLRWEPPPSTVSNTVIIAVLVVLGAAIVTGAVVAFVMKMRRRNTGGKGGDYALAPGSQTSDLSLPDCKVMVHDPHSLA

Sequence | Normalized average relative binding affinity(ARB) (HLA A*3001) | Normalized average relative binding affinity(ARB) (HLA A*3201) | Normalized average relative binding affinity(ARB) (HLA A*6802) | Normalized average relative binding affinity(ARB) (HLA B*0801) | Normalized average relative binding affinity(ARB) (HLA B*1501) | Normalized average relative binding affinity(ARB) (HLA B*1503) | Normalized average relative binding affinity(ARB) (HLA B*3501) | Normalized average relative binding affinity(ARB) (HLA B*5101) | Normalized average relative binding affinity(ARB) (HLA B*5301) | Normalized average relative binding affinity(ARB) (HLA B*5401) | Normalized average relative binding affinity(ARB) (HLA B*5801) | Normalized average relative binding affinity(ARB) (HLA B*5802) | Normalized average relative binding affinity(ARB) (H-2 D^b) | Normalized average relative binding affinity(ARB) (H-2 D^d) | Normalized average relative binding affinity(ARB) (H-2 K^d) | Normalized average relative binding affinity(ARB) (H-2 K^k)
XXXLXXXXX [3064.0070] | 0.52 | 0.098 | 0.14 | 0.61 | 0.56 | 0.46 | 0.10 | 0.69 | 0.17 | 0.74 | 0.42 | 0.50 | 0.96 | 0.52 | 0.17 | 0.96
XXXMXXXXX [3064.0071] | 0.38 | 0.58 | 0.55 | 1.0 | 0.56 | 1.0 | 0.27 | 0.46 | 0.46 | 0.13 | 0.54 | 0.44 | 0.65 | 0.49 | 0.22 | 0.42
XXXNXXXXX [3064.0072] | 0.31 | 0.59 | 0.27 | 0.48 | 0.46 | 0.76 | 0.079 | 0.42 | 0.27 | 0.20 | 0.46 | 0.55 | 0.18 | 0.40 | 0.24 | 0.22
XXXPXXXXX [3064.0073] | 0.59 | 0.095 | 0.37 | 0.34 | 0.22 | 0.67 | 0.11 | 0.55 | 0.023 | 0.13 | 1.0 | 0.50 | 0.15 | 0.15 | 0.48 | 0.41
XXXQXXXXX [3064.0074] | 0.65 | 0.32 | 0.18 | 0.90 | 0.96 | 0.83 | 0.088 | 0.57 | 0.26 | 0.093 | 0.46 | 0.31 | 0.61 | 0.49 | 0.42 | 0.63
XXXRXXXXX [3064.0075] | 0.52 | 0.22 | 0.057 | 0.86 | 0.28 | 0.50 | 0.059 | 0.40 | 0.11 | 0.069 | 0.67 | 0.96 | 0.63 | 0.62 | 0.20 | 0.34
